Experiments:
[1] = Dynamic vapor sorption (DVS) of crystalline Forms C and D; assay type: physicochemical; details: for DVS rapid weight gain: in the range of 25-35% RH; for DVS low weight gain: in the range of 35-75% RH
Experimental: (§1) The crystalline forms provided can be additionally characterized by dynamic vapor sorption (DVS), wherein a sample is subjected to varying conditions of humidity and temperature, and the response of the sample is measured gravimetrically. The result of a DVS analysis particularly can be a dual curve providing sample weight percent as a function of relative humidity (RH) over time, a dual curve providing sample water content as a function of RH over time, a curve providing weight percent in relation to RH, or a curve providing water content in relation to RH. Equipment useful for measuring such data is known in the art, and any such equipment can be used to measure the compounds according to the present invention. In certain embodiments, DVS analysis can be carried out by scanning at a series of specific RH values. Thus, specific polymorphs according to the invention may be identified and described in relation to the representative graph and/or the approximate peaks obtained in DVS analysis, particularly scanning from 0% to 95% RH with a step interval of 5% or 10% RH.
DVS data for the crystalline Forms C and D were collected on a Surface Measurement System DVS Intrinsic instrument. Samples were not dried prior to analysis. Sorption and desorption data were collected over a range from 5% to 95% RH at 10% RH increments under a nitrogen purge. The equilibrium criterion used for analysis was less than 0.0100% weight change in 5 minutes with a maximum equilibration time of 3 hours. Data were not corrected for the initial moisture content of the samples.

[2] = Dynamic vapor sorption (DVS) of crystalline Forms A and B; assay type: physicochemical; details: 25° C., adsorption range 0% to 95% RH
Experimental: as §1
DVS pattern for the crystalline Forms A and B was generated at 25° C. using a DVS Moisture Balance Flow System (Model Advantage) with the following conditions: sample size approximately 10 to 20 mg, drying at 25° C. for 60 minutes, adsorption range 0% to 95% RH, desorption range 95% to 0% RH, and step interval 5% RH. […]

| DVS weight gain ([1]; in the range of 5-25% RH) | DVS rapid weight gain [1] | DVS weight gain ([1]; in the range of 35-45% RH) | DVS low weight gain [1] | DVS total weight gain ([1]; between 5 and 95% RH) | DVS weight gain ([2]; at 75% RH) | DVS weight gain ([2]; at 95% RH) | Compound |
| --- | --- | --- | --- | --- | --- | --- | --- |
| about 2.7% | about 10% | about 6.1% | about 3.7% | – | – | – | CN(C)[C@@H]1C(O)=C(C(N)=O)C(=O)[C@@]2(O)C(O)=C3C(=O)c4c(O)c(NC(=O)[C@@H]5CCCN5C)cc(F)c4C[C@H]3C[C@@H]12 [Form C, (S)—N-((5aR,6aS,7S,10aS)-9-carbamoyl-7-(dimethylamino)-4-fluoro-1,8,10a,11-tetrahydroxy-10,12-dioxo-5,5a,6,6a,7,10,10a,12-octahydrotetracen-2-yl)-1-methylpyrrolidine-2-carboxamide] |
| about 2.7% | about 10% | – | about 3.7% | about 39.2% | – | – | CN(C)[C@@H]1C(O)=C(C(N)=O)C(=O)[C@@]2(O)C(O)=C3C(=O)c4c(O)c(NC(=O)[C@@H]5CCCN5C)cc(F)c4C[C@H]3C[C@@H]12 [Form D, (S)—N-((5aR,6aS,7S,10aS)-9-carbamoyl-7-(dimethylamino)-4-fluoro-1,8,10a,11-tetrahydroxy-10,12-dioxo-5,5a,6,6a,7,10,10a,12-octahydrotetracen-2-yl)-1-methylpyrrolidine-2-carboxamide] |
| – | – | – | – | – | about 19% | about 40% | CN(C)[C@@H]1C(O)=C(C(N)=O)C(=O)[C@@]2(O)C(O)=C3C(=O)c4c(O)c(NC(=O)[C@@H]5CCCN5C)cc(F)c4C[C@H]3C[C@@H]12 [Form A, (S)—N-((5aR,6aS,7S,10aS)-9-carbamoyl-7-(dimethylamino)-4-fluoro-1,8,10a,11-tetrahydroxy-10,12-dioxo-5,5a,6,6a,7,10,10a,12-octahydrotetracen-2-yl)-1-methylpyrrolidine-2-carboxamide] |
